Active and inactive are the calls of the source.
Legend:
[1] = system: Streptococcus sp. 'group A'; experiment: Streptococcus pyogenes SK(-)GAS viability under kanamycin – luminescence, BacTiterGlo, confirmation, counter-screen for streptokinase expression inhibitor project, dose response (AID 1900); assay type: functional, organism-based
Streptokinase A = target: T1, Streptokinase A (Streptococcus pyogenes serotype M1, UniProt P10520); experiment: viability-normalized secreted streptokinase activity reduction – plasminogen activation absorbance, OD405, dose response (AID 1914); assay type: functional, Streptococcus pyogenes M1 GAS;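 also: secreted streptokinase activity via plasminogen activation per viability signal from cell pellet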
T1 sequence (P10520 whole entry): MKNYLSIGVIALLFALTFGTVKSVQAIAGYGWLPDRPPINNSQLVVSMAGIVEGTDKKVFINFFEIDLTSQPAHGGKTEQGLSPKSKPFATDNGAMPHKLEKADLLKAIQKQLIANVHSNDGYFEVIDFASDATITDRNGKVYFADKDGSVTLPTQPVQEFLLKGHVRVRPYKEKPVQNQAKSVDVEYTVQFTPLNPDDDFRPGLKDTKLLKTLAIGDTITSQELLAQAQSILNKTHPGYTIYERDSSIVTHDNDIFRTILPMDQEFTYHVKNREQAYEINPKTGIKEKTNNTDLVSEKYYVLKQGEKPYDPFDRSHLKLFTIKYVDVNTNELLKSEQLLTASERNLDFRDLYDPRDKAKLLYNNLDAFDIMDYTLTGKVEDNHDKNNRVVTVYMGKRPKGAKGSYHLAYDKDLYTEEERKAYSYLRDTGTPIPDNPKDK

Cysteine protease ATG4B = target: T2, Cysteine protease ATG4B (Homo sapiens, UniProt Q9Y4P1); assay type: functional;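 also: Fluorescence-based dose-response confirmation assay measuring inhibition of ATG4B activity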
T2 sequence (Q9Y4P1 whole entry): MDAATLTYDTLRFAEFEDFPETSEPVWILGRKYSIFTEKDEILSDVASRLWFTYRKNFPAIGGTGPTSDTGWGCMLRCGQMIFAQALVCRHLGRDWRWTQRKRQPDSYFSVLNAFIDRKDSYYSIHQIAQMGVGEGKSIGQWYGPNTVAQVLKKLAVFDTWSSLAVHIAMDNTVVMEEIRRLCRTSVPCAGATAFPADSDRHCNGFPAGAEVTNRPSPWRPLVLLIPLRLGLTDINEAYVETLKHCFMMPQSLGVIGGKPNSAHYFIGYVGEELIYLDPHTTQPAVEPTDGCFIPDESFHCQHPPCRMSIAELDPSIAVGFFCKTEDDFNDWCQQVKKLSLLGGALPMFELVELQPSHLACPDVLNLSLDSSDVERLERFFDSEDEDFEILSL

Phospholipase A2 = Phospholipase A2 (Homo sapiens, UniProt P04054); assay type: functional;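 also: confirmatory dose-response counterscreen on phospholipase A2, testing hits that came from an ultra-high-throughput screen for ATG4B inhibitors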
Streptococcus = experiment: GAS UMAA2166 growth inhibition – luminescence, BacTiterGlo, counter-screen for streptokinase expression inhibitor project, dose response (AID 1915); assay type: functional, organism-based;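 also: potency for reduction of bacterial viability or growth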
[2] = target: Dual specificity tyrosine-phosphorylation-regulated kinase 1A (Rattus norvegicus, UniProt Q63470); assay type: biochemical, Homo sapiens
[3] = target: Cyclin-dependent kinase 5/CDK5 activator 1 (Homo sapiens, UniProt Q00535); experiment: blockade of human CDK5 activity – biochemical, cherry-picked samples, set 2, dose response (AID 504545)
Escherichia coli = experiment: microbe, parasite or virus in culture
[4] = target: T3, Calpain-2 catalytic subunit (Sus scrofa, UniProt P43367); experiment: m-calpain protease blockers, concentration series – biochemical, fluorogenic peptide substrate, dose response (AID 1420); assay type: functional
T3 sequence (P43367 whole entry): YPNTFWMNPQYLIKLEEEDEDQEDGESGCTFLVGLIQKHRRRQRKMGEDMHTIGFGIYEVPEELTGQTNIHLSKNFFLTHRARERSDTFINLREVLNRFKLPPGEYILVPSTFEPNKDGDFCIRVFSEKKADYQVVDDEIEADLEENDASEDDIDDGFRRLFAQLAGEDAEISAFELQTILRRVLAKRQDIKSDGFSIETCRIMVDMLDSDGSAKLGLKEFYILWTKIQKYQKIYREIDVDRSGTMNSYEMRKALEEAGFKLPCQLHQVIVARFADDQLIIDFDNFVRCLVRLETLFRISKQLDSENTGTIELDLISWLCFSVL

[5] = target: Delta-type opioid receptor (Homo sapiens, UniProt P41143); experiment: Counterscreen for agonists of heterodimerization of the mu 1 (OPRM1) and delta 1 (OPRD1) opioid receptors: Luminescence-based cell-based high throughput dose response assay to identify agonists of OPRD1 homodimerization. [Related pubchem assays (depositor defined):AID504326, AID504355, AID504692, AID504904, AID504905]; assay type: functional
[6] = target: T4, Carboxy-terminal domain RNA polymerase II polypeptide A small phosphatase 1 (Homo sapiens, UniProt Q9GZU7); experiment: CTDSP1 inhibitors, concentration-response, biochemical, absorbance readout, ultra-high-throughput screen actives (AID 540297); assay type: functional
T4 sequence (Q9GZU7 whole entry): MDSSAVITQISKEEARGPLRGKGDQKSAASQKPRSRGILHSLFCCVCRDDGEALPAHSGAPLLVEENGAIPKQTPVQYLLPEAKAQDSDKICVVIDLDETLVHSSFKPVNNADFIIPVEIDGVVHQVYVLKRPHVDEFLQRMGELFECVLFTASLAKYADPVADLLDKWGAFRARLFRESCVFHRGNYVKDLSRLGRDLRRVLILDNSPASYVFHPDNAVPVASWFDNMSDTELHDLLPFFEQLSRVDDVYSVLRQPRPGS

[7] = target: Induced myeloid leukemia cell differentiation protein Mcl-1 (Homo sapiens, UniProt Q07820); assay type: functional
Mu-type opioid receptor = Mu-type opioid receptor (Homo sapiens, UniProt P35372); experiment: Counterscreen for agonists of heterodimerization of the mu 1 (OPRM1) and delta 1 (OPRD1) opioid receptors: Luminescence-based cell-based high throughput dose response assay to identify agonists of OPRM1 homodimerization.; assay type: functional;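 also: U2OS cells expressing OPRM1 and beta-arrestin as split beta-galactosidase partners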
[8] = target: 5-hydroxytryptamine receptor 5A (Homo sapiens, UniProt P47898); experiment: Counterscreen for agonists of OPRM1-OPRD1 heterodimerization: luminescence-based cell-based high throughput dose response assay to identify agonists of 5-hydroxytryptamine (serotonin) 5A receptor (HTR5A). [Related pubchem assays (depositor defined):AID504326, AID504355, AID504692, AID504904, AID504905]; assay type: functional
[9] = target: T5, Type-1 angiotensin II receptor (Homo sapiens, UniProt P30556); experiment: antagonism of angiotensin II type 1 receptor – cell-based, uHTS hits, selectivity assay for APJ receptor antagonist project, dose response (AID 463214); assay type: functional;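 also: antagonist potency against angiotensin II stimulated AT1 response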
T5 sequence (P30556 whole entry): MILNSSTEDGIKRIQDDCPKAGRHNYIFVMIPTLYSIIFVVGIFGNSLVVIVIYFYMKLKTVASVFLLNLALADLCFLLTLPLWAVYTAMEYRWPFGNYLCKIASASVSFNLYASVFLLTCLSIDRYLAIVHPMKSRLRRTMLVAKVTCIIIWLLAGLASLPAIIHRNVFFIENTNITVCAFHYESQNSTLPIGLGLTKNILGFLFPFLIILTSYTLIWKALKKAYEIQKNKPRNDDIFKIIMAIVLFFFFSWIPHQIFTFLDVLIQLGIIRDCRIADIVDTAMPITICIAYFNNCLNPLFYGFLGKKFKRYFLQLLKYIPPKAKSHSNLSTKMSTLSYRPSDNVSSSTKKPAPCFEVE

[10] = target: Heat shock protein HSP 90-alpha (Homo sapiens, UniProt P07900); assay type: functional, organism-based
Beta-galactosidase = Beta-galactosidase (Escherichia coli, UniProt Q8VNN2); experiment: PubChem AID 485352; assay type: functional
[11] = Luminescence Cell-Based Dose Retest to Confirm Inhibitors of Cancer Stem Cells. [Related pubchem assays (depositor defined):AID2717, AID2721]; assay type: functional; settings: Homo sapiens
[12] = viability loss of HMLE_sh_eGFP cells – cell-based, luminescence, counter-screen for HMLE_sh_ECad selective toxicity project, dose response (AID 463074); assay type: functional, Homo sapiens;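 also: HMLE human mammary epithelial cells expressing control shRNA against eGFP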
[13] = target: Intestinal-type alkaline phosphatase (Mus musculus, UniProt P24822); experiment: PubChem AID 488785; assay type: functional
[14] = target: T6, Alkaline phosphatase, tissue-nonspecific isozyme (Homo sapiens, UniProt P05186); experiment: TNAP enzyme inhibition by screening hits, dose response, selectivity assay for mouse IAP inhibitor project, biochemical, human TNAP, uHTS hits (AID 488906); assay type: functional
T6 sequence (P05186 whole entry): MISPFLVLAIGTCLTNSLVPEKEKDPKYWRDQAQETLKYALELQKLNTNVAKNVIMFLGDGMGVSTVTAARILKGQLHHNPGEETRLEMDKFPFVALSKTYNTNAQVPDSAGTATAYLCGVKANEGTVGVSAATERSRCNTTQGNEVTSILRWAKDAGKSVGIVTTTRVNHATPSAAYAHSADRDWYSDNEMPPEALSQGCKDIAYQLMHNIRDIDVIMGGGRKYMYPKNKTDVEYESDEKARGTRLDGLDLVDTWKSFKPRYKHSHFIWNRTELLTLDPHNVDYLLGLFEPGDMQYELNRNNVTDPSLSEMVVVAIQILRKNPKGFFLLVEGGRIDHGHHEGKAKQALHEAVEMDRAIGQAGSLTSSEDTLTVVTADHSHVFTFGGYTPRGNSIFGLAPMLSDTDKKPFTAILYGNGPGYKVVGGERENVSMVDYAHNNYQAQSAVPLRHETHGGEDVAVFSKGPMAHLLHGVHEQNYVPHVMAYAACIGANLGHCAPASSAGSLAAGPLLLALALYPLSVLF

[15] = target: T7, Intestinal-type alkaline phosphatase (Homo sapiens, UniProt P09923); experiment: inhibition of human intestinal alkaline phosphatase – biochemical, dose response (AID 488876); assay type: functional
HEK293 [16] = experiment: cells; settings: Homo sapiens
[17] = viability of uninfected HEp-2 cells – cell-based, HTS, cytotoxicity control for RSV inhibitor project, dose response (AID 2410); assay type: functional; settings: human respiratory syncytial virus
HEK293 [18] = experiment: cells; settings: Homo sapiens; remark: listed apart in the source
Large T antigen = Large T antigen (Simian virus 40, UniProt P03070); assay type: functional, Betapolyomavirus macacae;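 also: Confirmatory-stage PubChem screen for compounds that inhibit SV40 T antigen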
[19] = target: T7, Intestinal-type alkaline phosphatase; experiment: activation of human intestinal alkaline phosphatase – biochemical, dose response (AID 488873); assay type: functional

Chain of Phospholipase A2 (P04054 whole entry): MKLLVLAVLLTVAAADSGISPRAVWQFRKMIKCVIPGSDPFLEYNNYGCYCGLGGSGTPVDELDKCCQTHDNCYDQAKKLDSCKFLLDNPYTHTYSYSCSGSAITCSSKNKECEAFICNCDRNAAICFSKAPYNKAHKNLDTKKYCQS
Chain of Beta-galactosidase (Q8VNN2 whole entry): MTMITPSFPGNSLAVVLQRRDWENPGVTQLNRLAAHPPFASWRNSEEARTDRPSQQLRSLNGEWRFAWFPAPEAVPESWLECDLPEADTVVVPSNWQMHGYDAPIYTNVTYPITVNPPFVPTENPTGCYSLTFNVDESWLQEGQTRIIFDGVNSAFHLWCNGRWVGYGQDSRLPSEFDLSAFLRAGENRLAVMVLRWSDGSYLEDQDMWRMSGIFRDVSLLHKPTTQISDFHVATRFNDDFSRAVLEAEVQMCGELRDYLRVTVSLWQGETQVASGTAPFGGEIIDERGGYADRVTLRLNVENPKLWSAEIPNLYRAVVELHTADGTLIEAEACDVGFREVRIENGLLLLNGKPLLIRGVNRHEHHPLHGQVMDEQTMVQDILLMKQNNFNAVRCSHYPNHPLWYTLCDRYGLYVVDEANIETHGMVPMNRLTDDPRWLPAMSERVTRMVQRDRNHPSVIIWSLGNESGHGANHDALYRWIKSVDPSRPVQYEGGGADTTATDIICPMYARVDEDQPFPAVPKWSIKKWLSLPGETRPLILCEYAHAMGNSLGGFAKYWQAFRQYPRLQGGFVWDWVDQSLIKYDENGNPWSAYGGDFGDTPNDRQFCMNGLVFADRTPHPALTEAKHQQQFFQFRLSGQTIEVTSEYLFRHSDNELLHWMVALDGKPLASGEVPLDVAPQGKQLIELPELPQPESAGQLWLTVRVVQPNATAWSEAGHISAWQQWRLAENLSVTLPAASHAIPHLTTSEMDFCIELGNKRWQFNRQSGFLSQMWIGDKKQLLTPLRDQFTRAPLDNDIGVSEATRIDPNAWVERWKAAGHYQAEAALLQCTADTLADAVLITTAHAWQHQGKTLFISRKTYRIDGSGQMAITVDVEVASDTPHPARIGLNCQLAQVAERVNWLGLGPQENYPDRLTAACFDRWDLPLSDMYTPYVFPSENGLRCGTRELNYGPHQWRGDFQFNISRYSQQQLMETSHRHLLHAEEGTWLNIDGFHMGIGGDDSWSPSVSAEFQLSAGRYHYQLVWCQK
T7 sequence (P09923 whole entry): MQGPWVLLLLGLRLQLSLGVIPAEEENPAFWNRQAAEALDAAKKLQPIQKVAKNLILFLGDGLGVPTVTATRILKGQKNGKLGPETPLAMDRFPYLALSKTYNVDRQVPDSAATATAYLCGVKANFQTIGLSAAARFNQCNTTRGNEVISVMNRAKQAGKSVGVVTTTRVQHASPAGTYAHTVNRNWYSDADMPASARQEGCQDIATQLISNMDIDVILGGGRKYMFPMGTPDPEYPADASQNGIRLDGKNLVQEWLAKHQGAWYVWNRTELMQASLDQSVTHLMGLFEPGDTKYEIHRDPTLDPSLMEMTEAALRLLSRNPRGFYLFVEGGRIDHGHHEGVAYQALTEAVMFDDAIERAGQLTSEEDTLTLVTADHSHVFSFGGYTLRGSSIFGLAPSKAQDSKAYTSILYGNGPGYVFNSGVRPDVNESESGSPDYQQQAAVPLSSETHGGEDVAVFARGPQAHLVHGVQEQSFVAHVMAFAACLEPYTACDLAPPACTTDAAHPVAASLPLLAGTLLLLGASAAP
Chain of Delta-type opioid receptor (P41143 whole entry, the tested form may be a part): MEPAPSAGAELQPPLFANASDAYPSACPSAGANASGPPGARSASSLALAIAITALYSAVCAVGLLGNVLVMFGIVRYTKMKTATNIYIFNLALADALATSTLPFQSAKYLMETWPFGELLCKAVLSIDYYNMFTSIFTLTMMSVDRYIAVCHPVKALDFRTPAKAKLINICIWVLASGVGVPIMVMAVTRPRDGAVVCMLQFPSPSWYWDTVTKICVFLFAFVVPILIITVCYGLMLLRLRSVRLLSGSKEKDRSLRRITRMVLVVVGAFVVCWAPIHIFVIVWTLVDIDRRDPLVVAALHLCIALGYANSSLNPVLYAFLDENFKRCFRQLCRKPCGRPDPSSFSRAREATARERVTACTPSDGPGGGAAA
Chain of 5-hydroxytryptamine receptor 5A (P47898 whole entry): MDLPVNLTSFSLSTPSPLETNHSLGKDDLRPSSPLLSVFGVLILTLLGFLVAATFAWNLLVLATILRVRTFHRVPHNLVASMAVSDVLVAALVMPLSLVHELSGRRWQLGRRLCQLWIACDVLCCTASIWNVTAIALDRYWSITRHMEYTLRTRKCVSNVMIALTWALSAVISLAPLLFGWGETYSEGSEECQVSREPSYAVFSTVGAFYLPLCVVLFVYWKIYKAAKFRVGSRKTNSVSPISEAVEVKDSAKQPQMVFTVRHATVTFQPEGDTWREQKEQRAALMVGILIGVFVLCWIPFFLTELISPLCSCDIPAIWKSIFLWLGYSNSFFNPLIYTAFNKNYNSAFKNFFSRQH
Chain of Intestinal-type alkaline phosphatase (Mus musculus, UniProt P24822) (P24822 whole entry): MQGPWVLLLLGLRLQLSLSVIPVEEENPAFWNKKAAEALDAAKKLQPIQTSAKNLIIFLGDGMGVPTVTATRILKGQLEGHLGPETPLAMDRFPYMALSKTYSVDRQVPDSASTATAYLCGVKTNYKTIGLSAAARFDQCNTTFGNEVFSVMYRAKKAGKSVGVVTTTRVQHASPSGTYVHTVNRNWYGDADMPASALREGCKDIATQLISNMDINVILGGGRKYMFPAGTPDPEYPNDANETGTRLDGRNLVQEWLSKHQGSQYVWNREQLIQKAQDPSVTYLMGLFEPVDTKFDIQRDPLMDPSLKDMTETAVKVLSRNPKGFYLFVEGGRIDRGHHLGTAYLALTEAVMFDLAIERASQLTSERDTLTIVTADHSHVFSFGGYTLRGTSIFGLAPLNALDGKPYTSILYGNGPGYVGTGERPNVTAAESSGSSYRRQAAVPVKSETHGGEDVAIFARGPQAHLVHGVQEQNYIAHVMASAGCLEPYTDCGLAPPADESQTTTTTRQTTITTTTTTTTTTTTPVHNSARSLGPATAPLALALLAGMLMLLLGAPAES
Chain of Mu-type opioid receptor (P35372 whole entry): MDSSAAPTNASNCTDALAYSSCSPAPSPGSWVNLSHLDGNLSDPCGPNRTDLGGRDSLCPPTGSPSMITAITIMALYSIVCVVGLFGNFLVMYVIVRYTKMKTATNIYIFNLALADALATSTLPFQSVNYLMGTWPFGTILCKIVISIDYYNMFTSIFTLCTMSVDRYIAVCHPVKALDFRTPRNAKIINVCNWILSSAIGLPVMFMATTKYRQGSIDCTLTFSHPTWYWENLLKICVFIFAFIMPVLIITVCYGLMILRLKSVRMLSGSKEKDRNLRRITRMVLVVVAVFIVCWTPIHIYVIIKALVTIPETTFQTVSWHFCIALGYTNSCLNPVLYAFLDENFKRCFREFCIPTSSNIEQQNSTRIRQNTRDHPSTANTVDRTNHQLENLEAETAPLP
Chain of Large T antigen (P03070 whole entry): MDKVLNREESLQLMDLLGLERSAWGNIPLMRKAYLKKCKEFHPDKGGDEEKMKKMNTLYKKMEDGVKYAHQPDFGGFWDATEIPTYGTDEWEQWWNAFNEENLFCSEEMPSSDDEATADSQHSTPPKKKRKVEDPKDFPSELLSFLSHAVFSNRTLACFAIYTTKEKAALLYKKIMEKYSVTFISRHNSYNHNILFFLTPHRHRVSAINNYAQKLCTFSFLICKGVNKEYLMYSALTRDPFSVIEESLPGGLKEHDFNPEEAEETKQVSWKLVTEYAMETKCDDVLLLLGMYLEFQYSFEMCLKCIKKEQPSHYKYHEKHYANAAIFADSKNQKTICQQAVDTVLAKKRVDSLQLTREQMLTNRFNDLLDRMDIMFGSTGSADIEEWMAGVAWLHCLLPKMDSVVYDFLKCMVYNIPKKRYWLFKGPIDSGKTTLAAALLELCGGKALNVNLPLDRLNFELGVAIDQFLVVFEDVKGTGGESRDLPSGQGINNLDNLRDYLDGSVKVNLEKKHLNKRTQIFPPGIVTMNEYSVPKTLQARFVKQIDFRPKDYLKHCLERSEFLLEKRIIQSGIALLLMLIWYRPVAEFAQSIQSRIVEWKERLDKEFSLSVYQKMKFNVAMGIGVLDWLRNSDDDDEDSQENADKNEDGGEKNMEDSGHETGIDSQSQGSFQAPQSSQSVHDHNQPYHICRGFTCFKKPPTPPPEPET
Chain of Cyclin-dependent kinase 5/CDK5 activator 1 (Q00535 whole entry): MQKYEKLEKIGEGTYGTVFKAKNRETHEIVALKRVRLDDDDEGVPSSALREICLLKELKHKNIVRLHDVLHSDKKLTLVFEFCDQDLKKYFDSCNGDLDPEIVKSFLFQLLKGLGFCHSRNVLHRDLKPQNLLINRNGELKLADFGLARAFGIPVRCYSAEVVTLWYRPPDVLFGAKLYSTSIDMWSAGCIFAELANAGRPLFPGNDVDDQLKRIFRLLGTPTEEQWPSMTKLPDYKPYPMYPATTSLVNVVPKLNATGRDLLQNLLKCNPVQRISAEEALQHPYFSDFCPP
Chain of Cyclin-dependent kinase 5/CDK5 activator 1 (Q15078 whole entry, further chain): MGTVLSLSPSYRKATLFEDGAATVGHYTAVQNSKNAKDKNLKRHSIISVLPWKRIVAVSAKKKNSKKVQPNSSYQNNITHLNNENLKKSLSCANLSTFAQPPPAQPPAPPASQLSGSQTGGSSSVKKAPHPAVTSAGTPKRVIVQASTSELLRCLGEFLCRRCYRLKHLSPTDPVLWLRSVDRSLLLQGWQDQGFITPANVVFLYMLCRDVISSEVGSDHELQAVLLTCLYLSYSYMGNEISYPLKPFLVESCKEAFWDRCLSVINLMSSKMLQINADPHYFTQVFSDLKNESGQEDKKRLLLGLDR

For `CCc1nn(CCCC(=O)NCc2ccccc2Br)c(=O)c2cc3occc3n12`, the EC50 [1] was 1.12 µM (active), the EC50 (Streptokinase A) was > 150 µM (not active) and the IC50 (Cysteine protease ATG4B) was 16.8 µM (active). The IC50 (Phospholipase A2) was 20 µM (inactive) and the EC50 (Streptococcus) was > 150 µM (not active).

In the case of `N#Cc1c(NC(=O)C2CC(c3ccccc3Cl)=NO2)sc2c1CCC2` (stereo not given), the IC50 (Cysteine protease ATG4B) is reported as 4.36 µM (active) and the IC50 (Phospholipase A2) is reported as 3.48 µM (active).

With `COc1ccc2nc3c(cc2c1)c(NC(=O)c1cccs1)nn3CC(C)C` the AC50 [2] was 0.43 µM (active) and the AC50 [3] was 4.21 µM (active).

In the case of `CCOc1ccc(C2=CS/C(=C(\C#N)c3nnc4n3CCCCC4)N2CC)cc1`, the IC50 (Cysteine protease ATG4B) is reported as 13 µM (active) and the IC50 (Phospholipase A2) is reported as 8.21 µM (active).

In the case of `CCCN(Cc1ccccc1)C(S)=Nc1ccc(SC(F)F)cc1`, the AC50 (Escherichia coli) is reported as 41.9 µM (active) and the IC50 [4] is reported as 18.1 µM (not active).

In the case of `O=C(Nc1cccc(-c2nn[nH]n2)c1)c1ccc(Cl)s1`, the AC50 [2] is reported as 1.44 µM (active).

For `COc1cccc(C(=O)Nc2ccc3c(c2)C(=O)c2ccccc2C3=O)c1`, the EC50 [5] was > 92.5 µM (inactive), the IC50 [6] was 6.16 µM (active) and the IC50 [7] was 1.82 µM (active). The EC50 (Mu-type opioid receptor) was > 92.5 µM (inactive) and the EC50 [8] was > 92.5 µM (inactive).

For `O=C1OCC(CO)(CO)N=C1NNc1ccc(Cl)c(Cl)c1`, the IC50 [9] was 16.6 µM (active), the AC50 [10] was 2.31 µM (active) and the EC50 (Beta-galactosidase) was > 40 µM (inactive).

For `COc1cc(/C=C2\SC(=S)N(N3CCOCC3)C2=O)ccc1O`, the IC50 [9] was > 40 µM (not active) and the EC50 (Beta-galactosidase) was > 40 µM (inactive).

In the case of `COc1ccc(NC(=O)/C(C#N)=C\C=C\c2ccco2)cc1`, the AC50 [11] is reported as 1.36 µM (active) and the AC50 [12] is reported as 23.1 µM (active).

With `CCN(c1ccccc1)S(=O)(=O)c1ccc2[nH]c(=O)[nH]c2c1` the IC50 [13] was 3.89 µM (active), the IC50 [14] was 24.9 µM (active) and the IC50 [15] was 33.8 µM (active).

With `Cc1ccc(C(=O)COC(=O)c2cnccn2)cc1[N+](=O)[O-]` the IC50 [9] was 38.5 µM (not active) and the EC50 (Beta-galactosidase) was > 40 µM (inactive).

With `CC[C@@]12C(=O)N(c3cccc(Br)c3)C(=O)N1[C@H](c1ccc(Cl)cc1)[C@@H]1C(=O)N(C3CCCCC3)C(=O)[C@@H]12` the EC50 (HEK293 [16]) was > 59.6 µM (inactive), the CC50 [17] was > 50 µM (active) and the EC50 (HEK293 [18]) was > 59.6 µM (inactive).

With `COC(=O)C1=CO[C@@H](C)[C@@H]2CN(CCc3c[nH]c4ccccc34)CC[C@H]12` the EC50 [5] was > 92.4 µM (inactive), the EC50 (Mu-type opioid receptor) was > 92.4 µM (inactive) and the EC50 [8] was > 92.4 µM (inactive).

In the case of `Fc1ccc(N/N=C/c2ccncc2)c(F)c1`, the AC50 [11] is reported as 43.7 µM (active) and the AC50 [12] is reported as 102 µM (active).

For `O=c1oc2cc(O)ccc2s1` [TIOXOLONE], the IC50 (Large T antigen) was 19 µM (active), the EC50 [19] was 8.33 µM (active) and the IC50 [13] was 2.59 µM (active). The IC50 [14] was > 100 µM (inactive), the EC50 (HEK293 [16]) was > 59.6 µM (inactive) and the EC50 (HEK293 [18]) was > 59.6 µM (inactive).
